pIC50: −log10 of the molar value. Structures can show the parent of a compound that is named as a salt.
These compounds were tested against T1, sodium-proton exchanger subtype 3 (NHE3) (Homo sapiens, UniProt P48764) (assay: recovery of intracellular pH (pHi) of LAP1 cells stably expressing NHE3 after acidification (BCECF, FLIPR)). Settings: pH recovery in percent of maximum recovery, XLFit, read-out: IC50 (inhibitory action on the NHE3).
T1 construct: expressed in transfected cells
T1 sequence (P48764 26-834): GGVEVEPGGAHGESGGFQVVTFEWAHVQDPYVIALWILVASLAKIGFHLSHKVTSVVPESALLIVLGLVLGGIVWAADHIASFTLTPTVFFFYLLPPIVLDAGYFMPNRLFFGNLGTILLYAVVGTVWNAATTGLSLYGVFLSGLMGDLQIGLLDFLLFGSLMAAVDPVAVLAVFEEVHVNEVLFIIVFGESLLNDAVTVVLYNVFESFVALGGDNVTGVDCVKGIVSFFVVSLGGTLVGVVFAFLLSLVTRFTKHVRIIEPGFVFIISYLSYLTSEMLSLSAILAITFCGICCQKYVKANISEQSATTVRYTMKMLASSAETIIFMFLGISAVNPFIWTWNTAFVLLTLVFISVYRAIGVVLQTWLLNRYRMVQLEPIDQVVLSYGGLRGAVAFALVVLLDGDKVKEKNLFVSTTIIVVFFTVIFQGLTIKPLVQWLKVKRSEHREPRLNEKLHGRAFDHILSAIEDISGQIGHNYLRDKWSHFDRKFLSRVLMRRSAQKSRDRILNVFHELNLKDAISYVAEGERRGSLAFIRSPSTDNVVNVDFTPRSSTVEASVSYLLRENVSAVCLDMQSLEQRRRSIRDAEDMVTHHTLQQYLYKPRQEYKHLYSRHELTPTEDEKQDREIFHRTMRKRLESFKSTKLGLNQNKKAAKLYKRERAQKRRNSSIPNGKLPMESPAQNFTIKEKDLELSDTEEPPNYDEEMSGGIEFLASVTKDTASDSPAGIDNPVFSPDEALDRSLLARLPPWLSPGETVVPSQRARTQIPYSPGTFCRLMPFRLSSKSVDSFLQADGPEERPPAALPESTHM
Type: cell-based
Protocol: In this test, the recovery in the intracellular pH (pHi) of LAP1 cells, which stably express the sodium-proton exchanger subtype 3 (NHE3), after an acidification was determined. This recovery sets in even under bicarbonate-free conditions in the case of functioning NHE3. To this end, the pHi was determined with the pH-sensitive fluorescent dye BCECF (Molecular Probes, Eugene, Oreg., USA; the precursor BCECF-AM is used). The cells were first incubated with BCECF (5 μM BCECF-AM) in NH4Cl buffer (NH4Cl buffer: 115 mM cholineCl, 20 mM NH4Cl, 5 mM KCl, 1 mM CaCl2, 1 mM MgCl2, 20 mM Hepes, 5 mM glucose; a pH of 7.4 is established with 1 M KOH). The intracellular acidification was induced by washing the cells incubated in NH4Cl buffer with NH4Cl-free buffer (133.8 mM choline chloride, 4.7 mM KCl, 1.25 mM CaCl2, 1.25 mM MgCl2, 0.97 mM K2HPO4, 0.23 mM KH2PO4, 5 mM Hepes, 5 mM glucose; a pH of 7.4 is established with 1 M KOH). After the washing operation, 90 μl of the NH4Cl-free buffer were left on the cells. The pH recovery was started by the addition of 90 μl of Na^+-containing buffer (133.8 mM NaCl, 4.7 mM KCl, 1.25 mM CaCl2, 1.25 mM MgCl2, 0.97 mM Na2HPO4, 0.23 mM NaH2PO4, 10 mM Hepes, 5 mM glucose; a pH of 7.4 is established with 1 M NaOH) in the analytical instrument (FLIPR, “Fluorometric Imaging Plate Reader”, Molecular Devices, Sunnyvale, Calif., USA). The BCECF fluorescence was determined at an excitation wavelength of 498 nm and the FLIPR emission filter 1 (band gap from 510 to 570 nm). The subsequent changes in fluorescence were registered for two minutes as a measure of the pH recovery. For the calculation of the NHE3-inhibitory potential of the tested substances, the cells were tested first in buffers in which full pH recovery, or none at all, took place. For full pH recovery (100%), the cells were incubated in Na^+-containing buffer (see above), and Na^+-free buffer for the determination of the 0% value (see above). The substances to be tested were made up in Na^+-containing buffer. The recovery in the intracellular pH at each tested concentration of a substance was expressed in percent of the maximum recovery. From the percentages of the pH recovery, the IC50 value of the particular substance for the NHE3 was calculated by means of the program XLFit (idbs, Surrey, UK).

Structure (SMILES) | pIC50
CC(C)CC1NC(=O)N(c2ccccc2[C@@H]2CN(C)Cc3c(Cl)cc(Cl)cc32)C1=O (stereo partly drawn) [Example 58] | 5.13
CN1Cc2c(Cl)cc(Cl)cc2[C@H](c2ccc(N3C(=O)CCCC3=O)cc2)C1 [Example 16] | 6.65
CN1Cc2c(Cl)cc(Cl)cc2C(c2ccc(N3CCNS3(=O)=O)cc2)C1 (stereo not drawn) [Example 8, 6,8-Dichloro-4-[4-(1,1-dioxo-1-λ^6-[1,2,5]thiadiazolidin-2-yl)phenyl]-2-methyl-1,2,3,4-tetrahydroisoquinoline] | 5.59
CN1Cc2c(Cl)cc(Cl)cc2[C@H](c2ccccc2N2CCOC2=O)C1 [Example 46, 3-[2-((R)-6,8-Dichloro-2-methyl-1,2,3,4-tetrahydroisoquinolin-4-yl)phenyl]-oxazolidin-2-one] | 6.66
CN1Cc2c(Cl)cc(Cl)cc2[C@H](c2ccccc2-n2cc[nH]c2=O)C1 [Example 40, 1-[2-((R)-6,8-Dichloro-2-methyl-1,2,3,4-tetrahydroisoquinolin-4-yl)phenyl]-1,3-dihydroimidazol-2-one hydrochloride] | 6.88
CN1Cc2c(Cl)cc(Cl)cc2[C@H](c2ccccc2N2C(=O)COCC2=O)C1 [Example 44, 4-[2-((R)-6,8-Dichloro-2-methyl-1,2,3,4-tetrahydroisoquinolin-4-yl)phenyl]-morpholine-3,5-dione trifluoroacetic acid salt] | 6.66
CN1Cc2c(Br)cc(Cl)cc2C(c2ccccc2N2CCCC2=O)C1 (stereo not drawn) [Example 64, 1-[2-(8-Bromo-6-chloro-2-methyl-1,2,3,4-tetrahydroisoquinolin-4-yl)-phenyl]pyrrolidin-2-one] | 6.60
O=C1CCC(=O)N1c1ccccc1[C@@H]1CNCc2c(Cl)cc(Cl)cc21 [Example 52, 1-[2-((R)-6,8-Dichloro-1,2,3,4-tetrahydroisoquinolin-4-yl)phenyl]-pyrrolidine-2,5-dione trifluoroacetic acid salt] | 4.91
CC1CC(C)C(=O)N(c2ccccc2[C@@H]2CN(C)Cc3c(Cl)cc(Cl)cc32)C1=O (stereo partly drawn) [Example 29] | 5.92
CSCCC1NC(=O)N(c2ccccc2[C@@H]2CN(C)Cc3c(Cl)cc(Cl)cc32)C1=O (mixture of isomers) [Example 57, (R and S)-3-[2-((R)-6,8-Dichloro-2-methyl-1,2,3,4-tetrahydroisoquinolin-4-yl)phenyl]-5-(2-methylsulfanylethyl)imidazolidine-2,4-dione trifluoroacetic acid salt] | 5.85
CN1CC(=O)N(c2ccccc2[C@@H]2CN(C3CC3)Cc3c(Cl)cc(Cl)cc32)C1=O [Example 55, 3-[2-((R)-6,8-Dichloro-2-cyclopropyl-1,2,3,4-tetrahydroisoquinolin-4-yl)-phenyl]-1-methylimidazolidine-2,4-dione hydrochloride] | 6.92
CN1Cc2c(Cl)cc(Cl)cc2[C@H](c2cccc(N3CCCCC3=O)c2)C1 [Example 38, 1-[3-((S)-6,8-Dichloro-2-methyl-1,2,3,4-tetrahydroisoquinolin-4-yl)phenyl]-piperidin-2-one] | 6.34
CN1Cc2c(Cl)cc(Cl)cc2[C@H](c2ccccc2N2CCCS2(=O)=O)C1 [Example 51, (R)-6,8-Dichloro-4-[2-(1,1-dioxo-1-λ^6-isothiazolidin-2-yl)phenyl]-2-methyl-1,2,3,4-tetrahydroisoquinoline hydrochloride] | 6.85
CN1Cc2c(Cl)cc(Cl)cc2[C@@H](c2ccccc2N2C(=O)CCC2=O)C1 [Example 34] | 4.53
CN1Cc2c(Cl)cc(Cl)cc2[C@H](c2cccc(N3C(=O)CNC3=O)c2)C1 [Example 4, 3-[3-((S)-6,8-Dichloro-2-methyl-1,2,3,4-tetrahydroisoquinolin-4-yl)phenyl]-imidazolidine-2,4-dione hydrochloride] | 6.89

The remaining compounds from weak to strong by pIC50, led by results:

pIC50 | Structure (SMILES)
6.92 | CN1Cc2c(Cl)cc(Cl)cc2[C@H](c2ccc(N3C(=O)CCC3=O)cc2)C1 [Example 14]
7.09 | CN1Cc2c(Cl)cc(Cl)cc2[C@H](c2ccccc2N2CCCC2=O)C1 [Example 35, 1-[2-((R)-6,8-Dichloro-2-methyl-1,2,3,4-tetrahydroisoquinolin-4-yl)phenyl]-pyrrolidin-2-one trifluoroacetate]
7.16 | CN1Cc2c(Cl)cc(Cl)cc2[C@H](c2ccccc2N2C(=O)CSC2=O)C1 [Example 42, 3-[2-((R)-6,8-Dichloro-2-methyl-1,2,3,4-tetrahydroisoquinolin-4-yl)phenyl]-thiazolidine-2,4-dione]
7.31 | CN1Cc2c(Cl)cc(Cl)cc2[C@H](c2ccccc2N2C(=O)COC2=O)C1 [Example 43, 3-[2-((R)-6,8-Dichloro-2-methyl-1,2,3,4-tetrahydroisoquinolin-4-yl)phenyl]-oxazolidine-2,4-dione]
7.33 | CN1Cc2c(Cl)cc(Cl)cc2[C@H](c2cccc(N3C(=O)C=CC3=O)c2)C1 [Example 10]
7.41 | CN1Cc2c(Cl)cc(Cl)cc2[C@H](c2ccccc2N2C(=O)CCC2=O)C1 [Example 7, 1-[2-((R)-6,8-Dichloro-2-methyl-1,2,3,4-tetrahydroisoquinolin-4-yl)phenyl]-pyrrolidine-2,5-dione hydrochloride]
